Assay results published in the Deep4Chem optical property database.
Values belong to the compound of their own block, whether it stands above or below them.

Assay: solvent given as SMILES
[1] = in O=P(c1ccccc1)(c1ccccc1)c1ccc2oc3ccc(P(=O)(c4ccccc4)c4ccccc4)cc3c2c1

SMILES: CS1(C)C(/C=C/C2=C(c3ccc(C(=O)O)cc3)C(=C/C=C3/N(CCCCS(=O)(=O)[O-])c4ccccc4S3(C)C)/CCC2)=[N+](CCCCS(=O)(=O)[O-])c2ccccc21
fluorescence lifetime (in CC(C)=O): 1.08 ns
fluorescence lifetime (in CCO): 0.93 ns
fluorescence lifetime (in CO): 0.72 ns
fluorescence lifetime (in CS(C)=O): 1.26 ns
fluorescence lifetime (in ClC(Cl)Cl): 1.31 ns
fluorescence lifetime (in ClCCl): 1.19 ns
fluorescence lifetime (in O): 0.33 ns

fluorescence lifetime (in ClC(Cl)Cl): 13.2 ns
SMILES: CCCCCCCCN1C(=O)c2ccc3c4c(-c5ccc6c7ccccc7n(-c7ccccc7)c6c5)cc5c6c(cc(-c7ccc8c9ccccc9n(-c9ccccc9)c8c7)c(c7ccc(c2c37)C1=O)c64)C(=O)N(CCCCCCCC)C5=O

SMILES: CCc1c(C)[nH]c(C2=[N+]3C(=Cc4c(C)cc(C)n4[B-]3(F)F)c3ccccc32)c1C
fluorescence lifetime (in C1CCOC1): 4.41 ns
fluorescence lifetime (in CC#N): 5.55 ns
fluorescence lifetime (in CCCCCC): 7.03 ns
fluorescence lifetime (in CO): 5.6 ns
fluorescence lifetime (in Cc1ccccc1): 5.9 ns
fluorescence lifetime (in ClCCl): 4.93 ns

fluorescence lifetime (in ClCCl): 1.31 ns
SMILES: COC(=O)c1cc(=O)n(C)c2cc(-c3ccccc3OC)sc12

SMILES: COc1ccc(C2=C(c3ccc(-c4ccccc4)cc3)C(c3ccccc3)=[N+]3C2=Nc2c(-c4ccc(OC)cc4)c(-c4ccc(-c5ccccc5)cc4)c(-c4ccccc4)n2[B-]3(F)F)cc1
fluorescence lifetime (in Cc1ccccc1): 0.14 ns

fluorescence lifetime (in O): 4.3 ns
SMILES: CC[n+]1nc2cc3c(cc2c2cc(C)ccc21)N(C)CCC3

fluorescence lifetime (in ClCCl): 0.2 ns
SMILES: CC1=C(c2ccc(N(C)C)cc2)C(C)=[N+]2C1=C(c1c(-c3ccccn3)nc3ccccn13)c1c(C)c(-c3ccc(N(C)C)cc3)c(C)n1[B-]2(F)F

fluorescence lifetime (in CCO): 3.3 ns
fluorescence lifetime (in O): 2.36 ns
SMILES: CN(C)c1ccc2c(-c3cc(C(=O)[O-])ccc3C(=O)[O-])c3ccc(=[N+](C)C)cc-3oc2c1

fluorescence lifetime (in O): 12.8 ns
SMILES: O=C([O-])c1cc2c(ccc3ccccc32)oc1=O

SMILES: CN(C)c1ccc(/C=C/c2ccc(-c3nnc(-c4ccc(-c5cc6ccccc6s5)cc4)o3)cc2)cc1
fluorescence lifetime (in Cc1ccccc1): 0.52 ns
fluorescence lifetime (in ClC(Cl)Cl): 0.53 ns

fluorescence lifetime (in CN(C)C=O): 3.1 ns
SMILES: Nc1ccc(N2C(=O)c3ccc4c5ccc6c7c(ccc(c8ccc(c3c48)C2=O)c75)C(=O)N(c2ccc(O)cc2)C6=O)cc1

fluorescence lifetime (in ClCCl): 3.16 ns
SMILES: C1=CC2C=c3c(cc4cccc5cc6ccccc6c3c45)C3=c4ccccc4=CC(=C1)C32 (configuration not stated)

fluorescence lifetime (in CC#N): 2.72 ns
fluorescence lifetime (in ClCCl): 3.13 ns
SMILES: CCN(CC)c1ccc(/N=N/c2nc3ccc(OC)cc3s2)cc1

fluorescence lifetime (in ClCCl): 0.8 ns
SMILES: CCOC(=O)/N=c1/oc2cc(OC)ccc2cc1C#N

fluorescence lifetime (in CC#N): 434 ns
SMILES: C1C[C@H]2CC[C@@H]1N=N2

fluorescence lifetime (in ClC(Cl)Cl): 5.13 ns
SMILES: c1ccc(N(c2ccccc2)c2ccc(-c3ccc(-c4ccc(-c5ccc(-c6ccc(N(c7ccccc7)c7ccccc7)cc6)s5)c5nsnc45)s3)cc2)cc1

fluorescence lifetime (in ClC(Cl)Cl): 5.4 ns
SMILES: CCCCCCCCCCCCOc1cc2c3c(ccc4c5c(OCCCCCCCCCCCC)cc6c7c(ccc(c1c34)c75)C(=O)N(C1CCCCC1)C6=O)C(=O)N(C1CCCCC1)C2=O

fluorescence lifetime (in C1CCOC1): 8.8 ns
fluorescence lifetime (in CN(C)C=O): 5.7 ns
SMILES: O=C(O)c1c2ccccc2c(C(=O)O)c2ccccc12

fluorescence lifetime (in CO): 0.843 ns
SMILES: CC1(C)C(/C=C/C2=C(Oc3ccc(CCN=C=S)cc3F)C(=C/C=C3/N(CCCS(=O)(=O)[O-])c4ccccc4C3(C)C)/CCC2)=[N+](CCCS(=O)(=O)[O-])c2ccccc21

fluorescence lifetime (in C1CCOC1): 1.63 ns
SMILES: CCn1c2ccccc2c2cc(-c3cc(-c4ccc5c(c4)c4ccccc4n5CC)nc(-c4ccc(OC)cc4)n3)ccc21

fluorescence lifetime (in ClC(Cl)Cl): 0.6 ns
SMILES: c1ccc(-c2ccnc(-c3ccccc3)n2)cc1

fluorescence lifetime (in CS(C)=O): 10.6 ns
SMILES: Cn1c2ccc(S(=O)(=O)Cl)cc2c(=O)c2cc(S(=O)(=O)Cl)ccc21

SMILES: c1ccc(-c2nc(-c3ccccc3)nc(-c3cc(-n4c5ccccc5c5ncccc54)cc(-n4c5ccccc5c5ncccc54)c3)n2)cc1
fluorescence lifetime [1]: 6.6 ns

fluorescence lifetime (in CC#N): 1 ns
SMILES: c1ccc(-[c+]2c3ccccc3sc3ccccc32)cc1

SMILES: COc1ccc2c(c1)c1cc(OC)ccc1n2-c1ccc2c(c1)-c1cc(-n3c4ccc(OC)cc4c4cc(OC)ccc43)ccc1P2(=O)c1ccccc1
fluorescence lifetime (in c1ccc2c(c1)c1ccccc1n2-c1ccc(-c2ccc(-n3c4ccccc4c4ccccc43)cc2)cc1): 16.7 ns

fluorescence lifetime (in ClCCl): 1.7 ns
SMILES: COCCOCCOCCOCC(COCCOCCOCCOC)Oc1cc(/C=C/c2ccc(C=C(C#N)C#N)cc2)c(OC(COCCOCCOCCOC)COCCOCCOCCOC)cc1/C=C/c1ccc(C=C(C#N)C#N)cc1

fluorescence lifetime (in CCO): 0.47 ns
fluorescence lifetime (in ClC(Cl)Cl): 2.87 ns
fluorescence lifetime (in O): 0.16 ns
SMILES: CC[N+](CC)=c1ccc2c(-c3ccccc3C(=O)O)c3c(=O)oc4c5c6c(cc4c3oc-2c1)CCCN6CCC5

SMILES: c1ccc(-c2nc(-c3ccccc3)nc(-c3cc(-n4c5ccccc5c5ncccc54)c(-n4c5ccccc5c5ncccc54)c(-n4c5ccccc5c5ncccc54)c3)n2)cc1
fluorescence lifetime [1]: 14.5 ns

fluorescence lifetime (in C1CCCCC1): 5.6 ns
SMILES: Nc1ccc2ccc3cccc4ccc1c2c34

SMILES: c1ccc2c(c1)CCc1c-2cnc2c1-c1ccccc1CC2
fluorescence lifetime (in C1CCOC1): 3.33 ns
fluorescence lifetime (in CC#N): 3.66 ns
fluorescence lifetime (in CCCCCC): 3.14 ns
fluorescence lifetime (in CCOC(C)=O): 3.46 ns
fluorescence lifetime (in CO): 3.96 ns
fluorescence lifetime (in CS(C)=O): 3.88 ns
fluorescence lifetime (in Cc1ccccc1): 3.24 ns
fluorescence lifetime (in ClCCl): 3.67 ns

SMILES: COc1ccc(/C=C/C2=[O+][B-](F)(F)OC(/C=C/c3ccc(OC)c4ccccc34)=C2c2ccccc2)c2ccccc12
fluorescence lifetime (in CC#N): 0.63 ns
fluorescence lifetime (in CC(C)=O): 1.02 ns
fluorescence lifetime (in CCOC(C)=O): 1.28 ns
fluorescence lifetime (in CCOCC): 1.12 ns
fluorescence lifetime (in ClC(Cl)(Cl)Cl): 0.94 ns
fluorescence lifetime (in ClCCl): 1.91 ns

SMILES: COc1ccc(N2c3ccc4ccccc4c3-c3c4ccccc4cc[n+]3[B-]2(c2ccccc2)c2ccccc2)cc1
fluorescence lifetime (in Cc1ccccc1): 0.25 ns

fluorescence lifetime (in C1CCCCC1): 0.85 ns
fluorescence lifetime (in CC#N): 2.72 ns
fluorescence lifetime (in CO): 5.38 ns
SMILES: Cc1cc2ccc(-c3cccc4cccc(-c5ccc6cc(C)c(=O)oc6c5)c34)cc2oc1=O

fluorescence lifetime (in c1ccccc1): 2.5 ns
SMILES: COc1ccc(-c2nc3ccccc3oc2=O)cc1

fluorescence lifetime (in ClCCl): 0.4 ns
SMILES: COc1cccc2cc(C#N)c(=N)oc12

fluorescence lifetime (in C1CCOC1): 15.3 ns
fluorescence lifetime (in CC#N): 7.7 ns
fluorescence lifetime (in CCCCCC): 22.4 ns
SMILES: COC(C)CC1=N/C(=C\c2cccc(N(C)C)c2)C(=O)N1C (configuration not stated)

fluorescence lifetime (in ClCCl): 1.77 ns
SMILES: CCCCCCOc1cc(/C=C/c2cc(OCCCCCC)c(/C=C/c3cc(OCCCCCC)c(C=O)cc3OCCCCCC)cc2OCCCCCC)c(OCCCCCC)cc1C=O

fluorescence lifetime (in CS(C)=O): 0.05 ns
SMILES: Cn1c(=O)c(/N=N/c2ccc(Nc3ccccc3)c(S(=O)(=O)O)c2)c(O)c2ccccc21

SMILES: c1ccc(-c2nn(-c3ccccc3)c3nc4ccccc4cc23)cc1
fluorescence lifetime (in C1CCCCC1): 17.9 ns
fluorescence lifetime (in C1CCOC1): 21.2 ns
fluorescence lifetime (in CC#N): 25.1 ns
fluorescence lifetime (in CC(C)=O): 23.4 ns
fluorescence lifetime (in CCCCCl): 19.7 ns
fluorescence lifetime (in CCCCOCCCC): 18.6 ns
fluorescence lifetime (in CN(C)C=O): 22 ns

fluorescence lifetime (in CN(C)C=O): 3.8 ns
SMILES: Nc1ccc(N2C(=O)c3ccc4c5ccc6c7c(ccc(c8ccc(c3c48)C2=O)c75)C(=O)N(c2ccc(N)cc2)C6=O)cc1

fluorescence lifetime (in CC#N): 5.45 ns
fluorescence lifetime (in CCO): 5.31 ns
fluorescence lifetime (in O): 5.23 ns
SMILES: CC1=CC2=Nc3nc(C)[n+](C)cc3CN2C=C1

fluorescence lifetime (in CC1CCCCC1): 5 ns
fluorescence lifetime (in CC#N): 4.5 ns
SMILES: C(=C\c1c2ccccc2cc2ccccc12)/c1cccc2ccccc12

fluorescence lifetime (in C1CCOC1): 3.38 ns
SMILES: C(=C\c1ccccc1/C=C/c1c2ccccc2cc2ccccc12)/c1ccncc1

fluorescence lifetime (in c1cc(-n2c3ccccc3c3ccccc32)cc(-n2c3ccccc3c3ccccc32)c1): 7.8 ns
SMILES: COc1ccc(-c2ccc3c(c2)c2cc(-c4ccc(OC)cc4)ccc2n3-c2ccc(C(=O)c3ccc4sc5ccccc5c4c3)cc2)cc1

fluorescence lifetime (in O): 0.0008 ns
SMILES: Nc1nc2c([nH]c(=O)n2[C@H]2C[C@H](O)[C@@H](CO)O2)c(=O)[nH]1
